Results from patent US20020115619A1, “Compositions and methods for treatment of cystic fibrosis” (priority 2000, published 2002).
Blank lines part the entries; values can stand above or below the compound they belong to.

Experiments:
[1] = cited from earlier work
rat αβγENaC = assay: Amiloride-sensitive whole-cell current in Xenopus oocytes injected with αβγENaC cRNAs; assay type: cell-based
Experimental: (§1) Human WT-CFTR, human ΔF508-CFTR, and mouse α−, β−and γ ENaC cRNAs were prepared using a cRNA synthesis kit (m-MESSAGE mMACHINE, Ambion Inc, Austin, Tex.) according to the manufacturer's protocol. cRNA concentrations were determined spectroscopically. Oocytes obtained from adult female Xenopus laevis (NASCO Fort Atkinson, Wis.) were defolliculated and maintained at 18° C. in modified Barth's saline (88 mM NaCl, 1 mM KCl, 2.4 mM NaHCO3, 15 mM Hepes pH 7.6, 0.3 mM Ca(NO3)2, 0.41 mM CaCl2, 0.82 MM MgSO4, 10 μg/ml sodium penicillin, 10 μg/ml streptomycin sulfate, 100 μg/ml gentamicin sulfate). […]
(§2) Whole-cell current measurements were made 24 to 48 hours after injection using the two-electrode voltage clamp method (GeneClamp 500 amplifier-Axon Instruments, Foster City, Calif.). […] The whole-cell currents were measured by voltage clamping the oocytes in 20 mV steps between −140 mV to +60 mV adjusted for baseline transmembrane potential. Whole cell currents (I) were digitized at 200 Hz during the voltage steps, recorded directly onto a hard disk and analyzed using pClamp 8 software (Axon Instruments, Foster City, Calif.). […]
The difference in whole-cell currents measured in the absence and presence of 10 μM amiloride was used to define the amiloride-sensitive Na^+current that was mediated by ENaC. […] Whole-cell currents were measured at −100 mV. […]

human WT-CFTR = molecular target: T1, human WT-CFTR (Homo sapiens, UniProt P13569); assay: Two-electrode voltage clamp whole-cell current in Xenopus oocytes injected with WT-CFTR cRNA; assay type: cell-based; details: FIG. 9
T1 construct: expressed in transfected cells; host or cells: Xenopus laevis oocytes, cRNA injection (10 ng)
T1 sequence (P13569 whole entry): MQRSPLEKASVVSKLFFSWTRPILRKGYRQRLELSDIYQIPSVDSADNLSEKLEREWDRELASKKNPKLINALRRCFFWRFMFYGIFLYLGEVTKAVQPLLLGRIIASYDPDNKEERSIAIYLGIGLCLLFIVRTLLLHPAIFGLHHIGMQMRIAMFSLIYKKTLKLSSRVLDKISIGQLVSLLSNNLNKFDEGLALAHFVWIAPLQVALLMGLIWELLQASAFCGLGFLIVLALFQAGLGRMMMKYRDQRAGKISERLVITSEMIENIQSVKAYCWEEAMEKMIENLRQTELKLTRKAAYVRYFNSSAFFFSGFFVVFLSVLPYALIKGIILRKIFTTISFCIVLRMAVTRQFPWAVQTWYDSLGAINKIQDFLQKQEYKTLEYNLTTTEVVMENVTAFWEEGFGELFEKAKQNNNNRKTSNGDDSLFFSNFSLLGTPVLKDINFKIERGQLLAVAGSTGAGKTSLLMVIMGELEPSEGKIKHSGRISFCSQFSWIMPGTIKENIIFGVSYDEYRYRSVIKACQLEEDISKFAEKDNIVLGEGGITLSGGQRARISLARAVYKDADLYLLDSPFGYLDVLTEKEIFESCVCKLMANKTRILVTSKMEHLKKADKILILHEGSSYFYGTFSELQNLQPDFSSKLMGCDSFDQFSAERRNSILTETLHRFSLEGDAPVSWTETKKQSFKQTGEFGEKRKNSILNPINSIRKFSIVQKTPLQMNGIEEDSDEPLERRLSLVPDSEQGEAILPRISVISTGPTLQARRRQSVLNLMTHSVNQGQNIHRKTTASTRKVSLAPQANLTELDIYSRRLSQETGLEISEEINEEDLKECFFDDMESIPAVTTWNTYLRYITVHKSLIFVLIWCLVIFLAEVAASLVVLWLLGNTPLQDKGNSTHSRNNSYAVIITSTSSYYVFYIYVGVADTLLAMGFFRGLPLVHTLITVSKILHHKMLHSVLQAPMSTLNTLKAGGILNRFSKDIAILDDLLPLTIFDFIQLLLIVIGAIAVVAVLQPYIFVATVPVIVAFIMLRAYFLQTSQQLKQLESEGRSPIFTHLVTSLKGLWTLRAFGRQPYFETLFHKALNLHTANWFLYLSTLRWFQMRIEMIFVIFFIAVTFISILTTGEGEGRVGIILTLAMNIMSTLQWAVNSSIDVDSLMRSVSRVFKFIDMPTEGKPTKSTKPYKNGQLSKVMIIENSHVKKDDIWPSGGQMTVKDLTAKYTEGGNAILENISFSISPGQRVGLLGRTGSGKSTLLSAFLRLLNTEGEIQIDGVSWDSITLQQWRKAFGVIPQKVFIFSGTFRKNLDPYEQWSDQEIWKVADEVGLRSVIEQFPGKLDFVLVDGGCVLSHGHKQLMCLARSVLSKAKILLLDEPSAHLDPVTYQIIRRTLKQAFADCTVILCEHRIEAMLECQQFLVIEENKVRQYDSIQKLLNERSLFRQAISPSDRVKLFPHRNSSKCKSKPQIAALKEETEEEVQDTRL
Experimental: as §1, §2
(§3) The difference in whole-cell currents measured in the absence and presence of 10 μM amiloride was used to define the amiloride-sensitive Na^+current that was mediated by ENaC. […]

ΔF508-CFTR [2] = molecular target: T2, ΔF508-CFTR (Homo sapiens, UniProt P13569, DEL508-508); details: cited from earlier work
T2 sequence (P13569 with tags, fused parts or gaps DEL508-508): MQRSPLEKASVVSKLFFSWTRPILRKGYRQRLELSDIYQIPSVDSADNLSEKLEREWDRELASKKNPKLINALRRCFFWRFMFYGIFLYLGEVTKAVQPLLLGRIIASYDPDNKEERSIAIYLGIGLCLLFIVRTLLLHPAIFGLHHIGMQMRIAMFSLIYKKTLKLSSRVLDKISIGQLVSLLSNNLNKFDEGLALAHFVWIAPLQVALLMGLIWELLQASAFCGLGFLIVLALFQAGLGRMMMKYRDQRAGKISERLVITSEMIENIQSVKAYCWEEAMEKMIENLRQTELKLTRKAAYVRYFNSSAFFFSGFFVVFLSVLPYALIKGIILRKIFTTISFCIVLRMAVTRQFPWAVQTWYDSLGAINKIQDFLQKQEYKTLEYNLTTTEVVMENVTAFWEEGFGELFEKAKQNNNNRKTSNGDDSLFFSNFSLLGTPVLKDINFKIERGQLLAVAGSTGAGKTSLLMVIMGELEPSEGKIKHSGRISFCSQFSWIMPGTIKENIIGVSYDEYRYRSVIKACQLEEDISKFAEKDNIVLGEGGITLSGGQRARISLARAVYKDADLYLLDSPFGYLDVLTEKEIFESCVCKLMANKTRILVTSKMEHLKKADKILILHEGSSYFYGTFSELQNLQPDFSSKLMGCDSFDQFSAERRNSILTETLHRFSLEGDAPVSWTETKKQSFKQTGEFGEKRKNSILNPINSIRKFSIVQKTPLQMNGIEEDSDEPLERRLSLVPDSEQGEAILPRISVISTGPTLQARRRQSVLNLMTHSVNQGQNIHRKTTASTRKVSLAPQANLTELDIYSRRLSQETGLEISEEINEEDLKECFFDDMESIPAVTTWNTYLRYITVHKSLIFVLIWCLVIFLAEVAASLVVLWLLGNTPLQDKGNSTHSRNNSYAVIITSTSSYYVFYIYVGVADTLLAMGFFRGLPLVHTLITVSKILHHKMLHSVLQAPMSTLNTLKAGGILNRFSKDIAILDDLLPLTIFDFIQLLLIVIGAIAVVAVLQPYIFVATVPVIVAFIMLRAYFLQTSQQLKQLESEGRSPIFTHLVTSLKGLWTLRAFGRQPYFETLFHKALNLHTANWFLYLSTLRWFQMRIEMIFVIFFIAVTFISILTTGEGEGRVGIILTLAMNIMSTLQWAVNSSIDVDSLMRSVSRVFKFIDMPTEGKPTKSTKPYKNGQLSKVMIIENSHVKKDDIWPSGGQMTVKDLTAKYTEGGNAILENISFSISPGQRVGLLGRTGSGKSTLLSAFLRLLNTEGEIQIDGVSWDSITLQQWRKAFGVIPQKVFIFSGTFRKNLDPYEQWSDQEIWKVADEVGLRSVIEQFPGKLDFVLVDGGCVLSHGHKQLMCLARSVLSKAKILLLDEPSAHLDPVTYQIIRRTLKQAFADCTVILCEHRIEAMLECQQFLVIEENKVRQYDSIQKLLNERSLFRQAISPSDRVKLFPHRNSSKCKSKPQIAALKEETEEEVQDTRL

[3] = 16 milligrams per kilogram per day, oral; cited from earlier work
ΔF508-CFTR [4] = molecular target: T2, ΔF508-CFTR; assay: Two-electrode voltage clamp whole-cell current in Xenopus oocytes injected with ΔF508-CFTR cRNA; assay type: cell-based; set-up: expressed in transfected cells; host or cells: Xenopus laevis oocytes, cRNA injection (10 ng); details: −100 mV, FIG. 8
Experimental: as §1, §2, §3

G551D = molecular target: T3, G551D (Homo sapiens, UniProt P13569, G551D); details: G551D patients; standard deviation 1.2 mV; cited from earlier work
T3 construct: host or cells: nasal epithelium of CF patients carrying G551D (endogenous protein)
T3 sequence (P13569 whole entry G551D): as the sequence (P13569 whole entry) above, with G551D counted along it

Structure (SMILES): O=C(O)CCCc1ccccc1 [4PBA, 4-phenylbutyrate]
commonly reported side effects in chronic therapy ([1]; FDA approved use, urea cycle disorders, 20 grams per day oral): mild stomach upset and an occasional bad taste in the mouth | side effects related to 4PBA therapy during trial ([1]; pilot CF trial, 19 grams per day, one week): no significant side effects

Structure (SMILES): N=C(N)NC(=O)c1nc(Cl)c(N)nc1N [amiloride]
inhibition of whole-cell current by amiloride (rat αβγENaC; 10 μM amiloride, oocytes injected with αβγENaC): A large fraction of the current can be inhibited

WT-CFTR whole-cell current after forskolin/IBMX plus genistein (human WT-CFTR; 10 μM forskolin/100 μM IBMX/50 μM genistein): 2.57±0.45 μA | fold increase of forskolin/IBMX-stimulated WT-CFTR current by addition of genistein (human WT-CFTR; 50 μM genistein, −100 mV): 2 fold | ΔF508-CFTR-mediated whole-cell current after forskolin/IBMX/genistein (ΔF508-CFTR [4]; 10 μM forskolin/100 μM IBMX/50 μM genistein, ΔF508-CFTR alone): 1.82±0.4 μA | fold increase of forskolin/IBMX-stimulated ΔF508-CFTR-mediated current by addition of genistein (ΔF508-CFTR [4]; 50 μM genistein added to 10 μM forskolin/100 μM IBMX): 5 fold
Structure (SMILES): O=c1c(-c2ccc(O)cc2)coc2cc(O)cc(O)c12 [genistein]
enhancement of cAMP-dependent activation of ΔF508-CFTR (ΔF508-CFTR [2]): ≤ 20 fold | activation of ΔF508-CFTR by the compound itself (ΔF508-CFTR [2]; without cAMP stimulation): does not activate ΔF508-CFTR by itself | side effects in Phase I clinical trials [3]: no side effects noted | average repolarization of the NPD during genistein perfusion (G551D): 2.4 mV | effect on amiloride-sensitive current of genistein alone or added before forskolin/IBMX (rat αβγENaC; ENaC alone, unpublished data): decreased
